# Laboratory results reported in patent US20180055835A1, “Method for Treating And Preventing Protozoal Infections” (priority 2016, published 2018).
# Tests used:
# [1] = biological target: Leishmania donovani topoisomerase I (LdTOPILS); conditions: inhibitor of LdTOPILS; Roy A., et al., Biochemical Journal 2007; cited from earlier work
# [2] = system: malaria; experiment: Case reports: relapse of malaria in patients given LDN; type: in vivo, human
# Protocol: • A patient with HIV suffering from malaria has had relapses at least twice a year for the last five years.
# • A person has suffered on and off from malaria for 40 years. The patient was administered 4.5 mg of LDN per day, as an adjunct treatment with chemotherapy.
# [3] = system: immune cells in peripheral blood; experiment: Changes of immune parameters in peripheral blood post treatment, flow cytometry; type: in vivo, BABL/C mice; conditions: treatment group after low dose naltrexone
# Protocol: (§1) • 45 BABL/C mice, six weeks old, were divided into 5 groups, 9 mice for each group. […] The survival was recorded from the third day of infection and infected rate of malaria are recorded by taking tail vein blood, smearing glass slide, Gimsa staining and checking parasitemia under microscope. • Finally changes of immune parameters in peripheral blood were measured by flow cytometry technology and made comparison to control.
# [4] = system: Py13XL malaria; experiment: Anti-malaria effect (treatment) with naltrexone in infected mice; type: in vivo, BABL/C mice; conditions: for mice died: on 5 d
# Protocol: as §1
# [5] = system: Py13XL malaria; experiment: Prevention of malaria by naltrexone in mice (dosing 7 days before infection); type: in vivo, BABL/C mice; conditions: oral, 7 days before infection, on 5 d, 9 mice per group
# Protocol: (§2) • 45 BABL/C mice, six weeks old, were divided into 5 groups, 9 mice for each group. […] The survival was recorded from the first day of infection and infected rate of malaria are recorded from the third day of infection by taking tail vein blood, smearing glass slide, Gimsa staining and checking parasitemia under microscope.
# [6] = system: Py13XL malaria (P. falciparum); experiment: as above; type: in vivo, BABL/C mice; conditions: for more mice died: on 6 d
# Protocol: as §2
# [7] = 0.5 mg naltrexone treating group, oral daily 15 days from 2 d post infection, 9 mice per group
# [8] = 1 mg naltrexone treating group, oral daily 15 days from 2 d post infection, 9 mice per group
# [9] = 0.5 mg naltrexone per mouse, oral, 7 days before infection, 9 mice per group
# [10] = 1 mg naltrexone per mouse, oral, 7 days before infection, 9 mice per group
smiles,measurement,setting,value
c1ccc2c(Cc3c[nH]c4ccccc34)c[nH]c2c1 [DIM],IC50,[1],1.2 µM
O=C1CC[C@@]2(O)[C@H]3Cc4ccc(O)c5c4[C@@]2(CCN3CC2CC2)[C@H]1O5 [naltrexone],time without relapse of malaria,"[2]; patient with HIV, relapses at least twice a year before, 4.5 mg per day as adjunct treatment for HIV",24 months
same,time without relapse of malaria,"[2]; person, malaria on and off for 40 years, 4.5 mg per day, adjunct with chemotherapy",over 24 months
same,Total nucleated cell,"[3]; control 1.30 ± 0.13, P < 0.01",4.21 ± 0.75
same,Treg cell,"[3]; control 4.22 ± 0.64, P < 0.01",2.15 ± 0.48
same,NK cell,"[3]; control 7.58 ± 1.59, P < 0.01",20.39 ± 4.42
same,Macrophage,"[3]; control 9.18 ± 0.26, P < 0.01",12.1 ± 0.56
same,CD4+ T cell,"[3]; control 22.65 ± 3.48, P < 0.01",34.81 ± 5.78
same,CD8+ T cell,"[3]; control 35.33 ± 3.62, P < 0.01",59.63 ± 3.78
same,CD3+ T cell,"[3]; control 48.90 ± 4.06, P < 0.01",67.04 ± 4.20
same,mice still alive for end point,[4]; [7],3 mice
same,mice died,[4]; [7],2 mice
same,more mice died,"[4]; 0.5 mg naltrexone treating group, oral daily 15 days from 2 d post infection, on 6 d, 9 mice per group",4 mice
same,treatment effect compared between dose groups,[4]; 1 mg naltrexone group versus 0.5 mg and 2 mg,best treatment
same,mice still alive till end point,[4]; [8],6 mice
same,mice died,[4]; [8],0 mice
same,more mice died,"[4]; 1 mg naltrexone treating group, oral daily 15 days from 2 d post infection, on 6 d, 9 mice per group",2 mice
same,more mice died,"[4]; 1 mg naltrexone treating group, oral daily 15 days from 2 d post infection, on 9 d, 9 mice per group",1 mice
same,parasitemia,"[4]; 1 mg naltrexone treating group, surviving mice, on 20 d",parasitemia disappeared
same,mice died,"[4]; 2 mg naltrexone group, oral daily from 2 d post infection, 9 mice per group",5 mice
same,more mice died,"[4]; 2 mg naltrexone group, oral daily from 2 d post infection, on 6 d, 9 mice per group",4 mice
same,toxicity to animals,"[4]; 2 mg naltrexone, infected mice",shows toxicity
same,mice died,[5]; 0.5 mg naltrexone per mouse,1 mice
same,mice died,[5]; 1 mg naltrexone per mouse,1 mice
same,mice died,[5]; 2 mg naltrexone per mouse,4 mice
same,mice still alive at the end point,[6]; [9],1 mice
same,more mice died,[6]; [9],7 mice
same,protecting effect compared between dose groups,[6]; 1 mg naltrexone per mouse versus 0.5 mg and 2 mg,best protecting effect
same,survival rate,"[6]; 1 mg naltrexone per mouse, oral, 7 days before infection",33.3%
same,mice still alive till the end point,[6]; [10],3 mice
same,more mice died,[6]; [10],5 mice
same,parasitemia,"[6]; 1 mg naltrexone per mouse, surviving mice, on 20 d",all infection parasitemia disappeared
same,more mice died,"[6]; 2 mg naltrexone per mouse, oral, 7 days before infection, 9 mice per group",5 mice
